These results are taken from US11565998B2, “Succinate prodrug, compositions containing the succinate prodrug and uses thereof” (ABLIVA AB, priority 2019, dated 2023).

Data set [1] can be described thus: In vivo pharmacokinetic studies.
Data set [2] is described as follows: Solubility in aqueous formulations in comparison to other succinate prodrugs. The class given is physicochemical. The note with it: thermodynamic from solid. As for the experimental part: Solubility of Compound 1 in aqueous formulations in comparison to other succinate prodrugs was assessed by dissolving solid material in aqueous formulations and measuring the quantity in solution by HPLC (−MS). […] In many cases the max solubility of other prodrugs was lower than 100 uM. See Table 21 for example solubility data in PBS pH7.4 for other succinate prodrugs.

Data set [3] in a line: Solubility of batches of different crystallinity. The class given is physicochemical. The settings on record: HPLC-grade water, water, thermodynamic from solid, mainly amorphous material (as worded, refers to Example 10); read-out: aqueous solubility. As for the experimental part: Two batches of Compound 1 were generated with different crystallinity. Batch 2 had higher crystallinity than Batch 3, which is regarded as having a higher degree of amorphous Compound 1-Batch 2 is therefore regarded as a more crystalline batch, whereas Batch 3 is regarded as a more amorphous batch. The methods used are discussed in this document.
A sample of the more amorphous Compound 1 batch 3 was added to PBS or water to a final concentration of 258 mg/mL and sonicated for 10 minutes, then shaken for 30 minutes.
A sample of the more crystalline Compound 1 batch 2 was added to HPLC-grade water (Fisher) to a final concentration of 30 mg/mL and sonicated for 10 minutes, then shaken for 30 minutes.
A sample of the more crystalline Compound 1 batch 2 was added to HPLC-grade water (Fisher) to a final concentration of 52 mg/mL and sonicated for 20 minutes, then shaken for 1 hour.
A sample of the more crystalline Compound 1 batch 2 was added to HPLC-grade water (Fisher) to a final concentration of […] and sonicated for 20 minutes, then shaken for 1.5 hours.

The nature of data set [4]: Aqueous formulations of Compound 1 (water, PBS, saline), concentration by HPLC. It counts as physicochemical. The settings on record: thermodynamic from solid.
Data set [5] is described as follows: Caco-2 bioavailability in vitro assay (apparent permeability). The class given is in vitro ADME. The note with it: human; Caco-2, apical to basolateral, 0.01 mM, pH 7.4, 1 h, 37° C. How it is done: (§1) The cell penetrance and potential for oral bioavailability of Compound 1 was tested using a standard caco-2 bioavailability in vitro assay (in brief, confluent Caco-2 cells (L1, A. P., 1992; Grass, G. M; et al., 1992, Volpe, D. A., et al., 2001) in a 24 well Corning Costar Transwell format were provided by In Vitro Technologies Inc. (IVT Inc., Baltimore, Md., USA). The apical chamber contained 0.15 mL Hank's balanced buffer solution (HBBS) pH 7.4, 1% DMSO, 0.1 mM Lucifer Yellow. The basal chamber contained 0.6 mL HBBS pH 7.4, 1% DMSO. Controls and tests were incubated at 37° C. in a humidified incubator, shaken at 130 rpm for 1 h. Lucifer Yellow permeates via the paracellular (between the tight junctions) route only, a high Apparent Permeability (Papp) for Lucifer Yellow indicates cellular damage during assay and all such wells were rejected. Propranolol (good passive permeation with no known transporter effects) & acebutalol (poor passive permeation attenuated by active efflux by P-glycoprotein) were used as reference compounds. Compounds were tested in a uni- and bi-directional format by applying compound to the apical or basal chamber (at 0.01 mM). Compounds in the apical or basal chambers were analysed by HPLC-MS. Results were expressed as Apparent Permeability, Papp, (nm/s), in comparison to other succinate prodrugs, including a number from WO2015/155231.
For orientation: Caco-2 cells form a polarised layer with tight junctions and transporters.

The test system of the next data set is Caco-2 cells. Described as above. The note with it: Caco-2. It counts as in vitro ADME. How it is done:
as §1

In brackets after ≈: the same amount, converted by molar mass.

By solubility is commonly meant how much of the substance goes into solution per volume. For orientation: Papp A→B means the apparent permeability from the apical to the basolateral side of a cell layer. Consider `COC(=O)CCC(=O)SCCNC(C)=O` [Compound 1, Methyl 3-[(2-acetylaminoethylthio)carbonyl]propionate], for which the brain penetration entry in data set [1] was “brain penetrant”. Further, in data set [1], the oral bioavailability result was “high oral bioavailability”. For the same compound, the solubility is over 500 mg/mL in data set [2] (0.9% saline, saline or isotonic); 190 mg/mL in data set [2] (aqueous buffer, PBS (pH 7.4)); over 0.1 mM in data set [2] (pH 7.4, aqueous buffer, PBS pH7.4); over 350 mg/mL in data set [2] (water); at least 300 mg/mL in data set [4] (aqueous buffer, pH 7.4, aqueous media tested, room temperature (20-25° C.), read-out: aqueous solubility); over 500 mg/mL in data set [4] (water and aqueous systems, water, read-out: solubility). The solubility in data set [4] (water and aqueous systems, water, read-out: solubility (molar equivalent)) is about 2100 mM. The solubility at 1.5 h in data set [3] stood at 850 mg/mL (≈ 3640 mM). Also, the Papp A→B at 1 h, 0.01 mM in data set [5] came out at 0.412 ×10⁻⁶ cm/s. In the data set with Caco-2 cells, the “Apical to Basolateral transfer, rank among prodrugs tested” value is reported as “highest”.
